The supplement of paper PMC10307832

What was measured:
Test in all cases: relative viability (nuclei count vs DMSO), 5 days (fraction); higher = more cells survive
VX-702 + Pictilisib = compound: NC(=O)c1ccc(N(C(N)=O)c2c(F)cccc2F)nc1-c1ccc(F)cc1F [VX-702] + CS(=O)(=O)N1CCN(Cc2cc3nc(-c4cccc5[nH]ncc45)nc(N4CCOCC4)c3s2)CC1 [Pictilisib] (partner 1 µM)
Method in brief: (§1)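 For relative viability, nuclei counts in treated wells were divided by those in vehicle wells. Lung cancer cell lines had been pin-tool dosed in 1536-well plates the day after seeding and cultured for 5 days, then fixed and stained in one step (final 0.05% Triton X-100, 1% formaldehyde, 1 ug/ml Hoechst) and imaged at 4×. Doses were one drug alone or a fixed anchor-drug dose plus five library-drug doses (not always all listed) in √10 steps, and values are duplicate-plate medians.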

Dabrafenib + Crizotinib = compound: CC(C)(C)c1nc(-c2cccc(NS(=O)(=O)c3c(F)cccc3F)c2F)c(-c2ccnc(N)n2)s1 [Dabrafenib] + C[C@@H](Oc1cc(-c2cnn(C3CCNCC3)c2)cnc1N)c1c(Cl)ccc(F)c1Cl [Crizotinib] (partner 1 µM)
Method in brief: as §1

Dabrafenib + Foretinib = compound: CC(C)(C)c1nc(-c2cccc(NS(=O)(=O)c3c(F)cccc3F)c2F)c(-c2ccnc(N)n2)s1 [Dabrafenib] + COc1cc2c(Oc3ccc(NC(=O)C4(C(=O)Nc5ccc(F)cc5)CC4)cc3F)ccnc2cc1OCCCN1CCOCC1 [Foretinib] (partner 0.25 µM)
Method in brief: as §1

Dabrafenib + Linsitinib = compound: CC(C)(C)c1nc(-c2cccc(NS(=O)(=O)c3c(F)cccc3F)c2F)c(-c2ccnc(N)n2)s1 [Dabrafenib] + C[C@]1(O)C[C@@H](c2nc(-c3ccc4ccc(-c5ccccc5)nc4c3)c3c(N)nccn32)C1 [Linsitinib] (partner 1 µM)
Method in brief: as §1

201T
relative viability (VX-702 + Pictilisib; first compound 0.02 µM): 0.698 | relative viability (VX-702 + Pictilisib; first compound 0.2 µM): 0.634 | relative viability (VX-702 + Pictilisib; first compound 0.6325 µM): 0.676 | relative viability (VX-702 + Pictilisib; first compound 2 µM): 0.668 | relative viability (Dabrafenib + Crizotinib; first compound 0.003 µM): 1.04 | relative viability (Dabrafenib + Crizotinib; first compound 0.009487 µM): 1.01 | relative viability (Dabrafenib + Crizotinib; first compound 0.03 µM): 0.939 | relative viability (Dabrafenib + Crizotinib; first compound 0.09487 µM): 1.03 | relative viability (Dabrafenib + Crizotinib; first compound 0.3 µM): 1.03 | relative viability (Dabrafenib + Foretinib; first compound 0.003 µM): 1.11 | relative viability (Dabrafenib + Foretinib; first compound 0.009487 µM): 1.2 | relative viability (Dabrafenib + Foretinib; first compound 0.03 µM): 1.12 | relative viability (Dabrafenib + Foretinib; first compound 0.09487 µM): 1.14 | relative viability (Dabrafenib + Foretinib; first compound 0.3 µM): 1.26 | relative viability (Dabrafenib + Linsitinib; first compound 0.003 µM): 0.918 | relative viability (Dabrafenib + Linsitinib; first compound 0.009487 µM): 1.07 | relative viability (Dabrafenib + Linsitinib; first compound 0.03 µM): 0.941 | relative viability (Dabrafenib + Linsitinib; first compound 0.09487 µM): 1.03 | relative viability (Dabrafenib + Linsitinib; first compound 0.3 µM): 1.05

A549
relative viability (VX-702 + Pictilisib; first compound 0.02 µM): 0.48 | relative viability (VX-702 + Pictilisib; first compound 0.2 µM): 0.517 | relative viability (VX-702 + Pictilisib; first compound 0.6325 µM): 0.519 | relative viability (VX-702 + Pictilisib; first compound 2 µM): 0.705 | relative viability (Dabrafenib + Crizotinib; first compound 0.003 µM): 0.805 | relative viability (Dabrafenib + Crizotinib; first compound 0.009487 µM): 0.763 | relative viability (Dabrafenib + Crizotinib; first compound 0.03 µM): 0.887 | relative viability (Dabrafenib + Crizotinib; first compound 0.09487 µM): 0.737 | relative viability (Dabrafenib + Crizotinib; first compound 0.3 µM): 0.768 | relative viability (Dabrafenib + Foretinib; first compound 0.003 µM): 0.979 | relative viability (Dabrafenib + Foretinib; first compound 0.009487 µM): 0.988 | relative viability (Dabrafenib + Foretinib; first compound 0.03 µM): 0.911 | relative viability (Dabrafenib + Foretinib; first compound 0.09487 µM): 0.988 | relative viability (Dabrafenib + Foretinib; first compound 0.3 µM): 0.975 | relative viability (Dabrafenib + Linsitinib; first compound 0.009487 µM): 0.549 | relative viability (Dabrafenib + Linsitinib; first compound 0.03 µM): 0.374 | relative viability (Dabrafenib + Linsitinib; first compound 0.09487 µM): 0.697 | relative viability (Dabrafenib + Linsitinib; first compound 0.3 µM): 0.568

A-427
relative viability (VX-702 + Pictilisib; first compound 0.02 µM): 0.786 | relative viability (VX-702 + Pictilisib; first compound 0.2 µM): 0.706 | relative viability (VX-702 + Pictilisib; first compound 0.6325 µM): 0.701 | relative viability (VX-702 + Pictilisib; first compound 2 µM): 0.566 | relative viability (Dabrafenib + Crizotinib; first compound 0.009487 µM): 0.883 | relative viability (Dabrafenib + Crizotinib; first compound 0.03 µM): 0.772 | relative viability (Dabrafenib + Crizotinib; first compound 0.09487 µM): 0.87 | relative viability (Dabrafenib + Crizotinib; first compound 0.3 µM): 1.03 | relative viability (Dabrafenib + Foretinib; first compound 0.009487 µM): 1.24 | relative viability (Dabrafenib + Foretinib; first compound 0.03 µM): 1.14 | relative viability (Dabrafenib + Foretinib; first compound 0.09487 µM): 0.87 | relative viability (Dabrafenib + Foretinib; first compound 0.3 µM): 1.01 | relative viability (Dabrafenib + Linsitinib; first compound 0.009487 µM): 1.13 | relative viability (Dabrafenib + Linsitinib; first compound 0.03 µM): 1 | relative viability (Dabrafenib + Linsitinib; first compound 0.09487 µM): 0.949 | relative viability (Dabrafenib + Linsitinib; first compound 0.3 µM): 1.1

ABC-1
relative viability (VX-702 + Pictilisib; first compound 0.02 µM): 0.829 | relative viability (VX-702 + Pictilisib; first compound 0.6325 µM): 0.649 | relative viability (VX-702 + Pictilisib; first compound 2 µM): 0.655 | relative viability (Dabrafenib + Crizotinib; first compound 0.009487 µM): 1.11 | relative viability (Dabrafenib + Crizotinib; first compound 0.03 µM): 1.02 | relative viability (Dabrafenib + Crizotinib; first compound 0.09487 µM): 0.961 | relative viability (Dabrafenib + Crizotinib; first compound 0.3 µM): 1.34 | relative viability (Dabrafenib + Foretinib; first compound 0.003 µM): 1.03 | relative viability (Dabrafenib + Foretinib; first compound 0.009487 µM): 1.09 | relative viability (Dabrafenib + Foretinib; first compound 0.03 µM): 0.866 | relative viability (Dabrafenib + Foretinib; first compound 0.09487 µM): 1.02 | relative viability (Dabrafenib + Foretinib; first compound 0.3 µM): 1.26 | relative viability (Dabrafenib + Linsitinib; first compound 0.009487 µM): 0.81 | relative viability (Dabrafenib + Linsitinib; first compound 0.03 µM): 0.841 | relative viability (Dabrafenib + Linsitinib; first compound 0.09487 µM): 0.892 | relative viability (Dabrafenib + Linsitinib; first compound 0.3 µM): 0.861

BEN
relative viability (VX-702 + Pictilisib; first compound 0.02 µM): 0.558 | relative viability (VX-702 + Pictilisib; first compound 0.2 µM): 0.526 | relative viability (VX-702 + Pictilisib; first compound 0.6325 µM): 0.491 | relative viability (VX-702 + Pictilisib; first compound 2 µM): 0.608 | relative viability (Dabrafenib + Crizotinib; first compound 0.009487 µM): 0.985 | relative viability (Dabrafenib + Crizotinib; first compound 0.09487 µM): 0.749 | relative viability (Dabrafenib + Crizotinib; first compound 0.3 µM): 1.09 | relative viability (Dabrafenib + Foretinib; first compound 0.009487 µM): 0.699 | relative viability (Dabrafenib + Foretinib; first compound 0.09487 µM): 0.569 | relative viability (Dabrafenib + Foretinib; first compound 0.3 µM): 0.713 | relative viability (Dabrafenib + Linsitinib; first compound 0.009487 µM): 0.986 | relative viability (Dabrafenib + Linsitinib; first compound 0.09487 µM): 0.883 | relative viability (Dabrafenib + Linsitinib; first compound 0.3 µM): 0.938

CAL-12T
relative viability (VX-702 + Pictilisib; first compound 0.02 µM): 0.482 | relative viability (VX-702 + Pictilisib; first compound 0.2 µM): 0.185 | relative viability (VX-702 + Pictilisib; first compound 0.6325 µM): 0.536 | relative viability (VX-702 + Pictilisib; first compound 2 µM): 0.534 | relative viability (Dabrafenib + Crizotinib; first compound 0.003 µM): 0.502 | relative viability (Dabrafenib + Crizotinib; first compound 0.009487 µM): 0.752 | relative viability (Dabrafenib + Crizotinib; first compound 0.03 µM): 0.728 | relative viability (Dabrafenib + Crizotinib; first compound 0.09487 µM): 0.582 | relative viability (Dabrafenib + Crizotinib; first compound 0.3 µM): 0.791 | relative viability (Dabrafenib + Foretinib; first compound 0.003 µM): 1.07 | relative viability (Dabrafenib + Foretinib; first compound 0.009487 µM): 1.09 | relative viability (Dabrafenib + Foretinib; first compound 0.03 µM): 1.11 | relative viability (Dabrafenib + Foretinib; first compound 0.09487 µM): 1.11 | relative viability (Dabrafenib + Foretinib; first compound 0.3 µM): 1.44 | relative viability (Dabrafenib + Linsitinib; first compound 0.003 µM): 0.744 | relative viability (Dabrafenib + Linsitinib; first compound 0.009487 µM): 0.901 | relative viability (Dabrafenib + Linsitinib; first compound 0.03 µM): 0.786 | relative viability (Dabrafenib + Linsitinib; first compound 0.09487 µM): 0.777 | relative viability (Dabrafenib + Linsitinib; first compound 0.3 µM): 0.963

COR-L23
relative viability (VX-702 + Pictilisib; first compound 0.02 µM): 0.908 | relative viability (VX-702 + Pictilisib; first compound 0.2 µM): 0.855 | relative viability (VX-702 + Pictilisib; first compound 0.6325 µM): 0.772 | relative viability (VX-702 + Pictilisib; first compound 2 µM): 1.06 | relative viability (Dabrafenib + Crizotinib; first compound 0.003 µM): 0.644 | relative viability (Dabrafenib + Crizotinib; first compound 0.009487 µM): 0.627 | relative viability (Dabrafenib + Crizotinib; first compound 0.03 µM): 0.633 | relative viability (Dabrafenib + Crizotinib; first compound 0.09487 µM): 0.607 | relative viability (Dabrafenib + Crizotinib; first compound 0.3 µM): 0.55 | relative viability (Dabrafenib + Foretinib; first compound 0.003 µM): 0.947 | relative viability (Dabrafenib + Foretinib; first compound 0.009487 µM): 0.982 | relative viability (Dabrafenib + Foretinib; first compound 0.03 µM): 0.873 | relative viability (Dabrafenib + Foretinib; first compound 0.09487 µM): 0.882 | relative viability (Dabrafenib + Foretinib; first compound 0.3 µM): 0.935 | relative viability (Dabrafenib + Linsitinib; first compound 0.003 µM): 0.997 | relative viability (Dabrafenib + Linsitinib; first compound 0.009487 µM): 0.974 | relative viability (Dabrafenib + Linsitinib; first compound 0.03 µM): 0.843 | relative viability (Dabrafenib + Linsitinib; first compound 0.09487 µM): 0.886 | relative viability (Dabrafenib + Linsitinib; first compound 0.3 µM): 0.883

COR-L 105
relative viability (VX-702 + Pictilisib; first compound 0.02 µM): 0.449 | relative viability (VX-702 + Pictilisib; first compound 0.2 µM): 0.386 | relative viability (VX-702 + Pictilisib; first compound 0.6325 µM): 0.409 | relative viability (VX-702 + Pictilisib; first compound 2 µM): 0.366 | relative viability (Dabrafenib + Crizotinib; first compound 0.003 µM): 0.843 | relative viability (Dabrafenib + Crizotinib; first compound 0.009487 µM): 0.987 | relative viability (Dabrafenib + Crizotinib; first compound 0.03 µM): 0.67 | relative viability (Dabrafenib + Crizotinib; first compound 0.09487 µM): 0.719 | relative viability (Dabrafenib + Crizotinib; first compound 0.3 µM): 0.851 | relative viability (Dabrafenib + Foretinib; first compound 0.003 µM): 0.971 | relative viability (Dabrafenib + Foretinib; first compound 0.009487 µM): 1.32 | relative viability (Dabrafenib + Foretinib; first compound 0.03 µM): 1.18 | relative viability (Dabrafenib + Foretinib; first compound 0.09487 µM): 1.11 | relative viability (Dabrafenib + Foretinib; first compound 0.3 µM): 1.41 | relative viability (Dabrafenib + Linsitinib; first compound 0.003 µM): 0.959 | relative viability (Dabrafenib + Linsitinib; first compound 0.009487 µM): 0.943 | relative viability (Dabrafenib + Linsitinib; first compound 0.03 µM): 0.908 | relative viability (Dabrafenib + Linsitinib; first compound 0.09487 µM): 0.88 | relative viability (Dabrafenib + Linsitinib; first compound 0.3 µM): 1.07

Calu-6
relative viability (VX-702 + Pictilisib; first compound 0.02 µM): 0.973 | relative viability (VX-702 + Pictilisib; first compound 0.2 µM): 1.05 | relative viability (VX-702 + Pictilisib; first compound 0.6325 µM): 0.996 | relative viability (VX-702 + Pictilisib; first compound 2 µM): 1.11 | relative viability (Dabrafenib + Crizotinib; first compound 0.003 µM): 0.681 | relative viability (Dabrafenib + Crizotinib; first compound 0.009487 µM): 0.833 | relative viability (Dabrafenib + Crizotinib; first compound 0.03 µM): 0.786 | relative viability (Dabrafenib + Crizotinib; first compound 0.09487 µM): 0.555 | relative viability (Dabrafenib + Crizotinib; first compound 0.3 µM): 0.577 | relative viability (Dabrafenib + Foretinib; first compound 0.003 µM): 0.878 | relative viability (Dabrafenib + Foretinib; first compound 0.009487 µM): 0.964 | relative viability (Dabrafenib + Foretinib; first compound 0.03 µM): 0.84 | relative viability (Dabrafenib + Foretinib; first compound 0.09487 µM): 0.84 | relative viability (Dabrafenib + Foretinib; first compound 0.3 µM): 0.654 | relative viability (Dabrafenib + Linsitinib; first compound 0.003 µM): 0.939 | relative viability (Dabrafenib + Linsitinib; first compound 0.009487 µM): 0.951 | relative viability (Dabrafenib + Linsitinib; first compound 0.03 µM): 0.72 | relative viability (Dabrafenib + Linsitinib; first compound 0.09487 µM): 0.737 | relative viability (Dabrafenib + Linsitinib; first compound 0.3 µM): 0.675
